Test results published in patent publication US7049340B1, “Neuroprotective and retinoprotective ophthalmologic drugs” (priority 1999, dated 2006).
Like-named read-outs stand apart in the source and are kept apart here.

Assays:
treated patients = test: Visual function in treated patients, enalaprilat used instead of ramipril; format: in vivo, human; conditions: comparison enalaprilat vs ramiprilat
Description: It should be remembered that the physico-chemical indications described above originate from the article by Vasmant et al., loc. cit.

rabbit converting enzyme [1] = target: T1, rabbit converting enzyme (Oryctolagus cuniculus, UniProt P12822); conditions: cited from earlier work
T1 construct: host or cells: rabbit lung (only from the title of the cited Shapiro thesis)
T1 sequence (P12822 34-1310): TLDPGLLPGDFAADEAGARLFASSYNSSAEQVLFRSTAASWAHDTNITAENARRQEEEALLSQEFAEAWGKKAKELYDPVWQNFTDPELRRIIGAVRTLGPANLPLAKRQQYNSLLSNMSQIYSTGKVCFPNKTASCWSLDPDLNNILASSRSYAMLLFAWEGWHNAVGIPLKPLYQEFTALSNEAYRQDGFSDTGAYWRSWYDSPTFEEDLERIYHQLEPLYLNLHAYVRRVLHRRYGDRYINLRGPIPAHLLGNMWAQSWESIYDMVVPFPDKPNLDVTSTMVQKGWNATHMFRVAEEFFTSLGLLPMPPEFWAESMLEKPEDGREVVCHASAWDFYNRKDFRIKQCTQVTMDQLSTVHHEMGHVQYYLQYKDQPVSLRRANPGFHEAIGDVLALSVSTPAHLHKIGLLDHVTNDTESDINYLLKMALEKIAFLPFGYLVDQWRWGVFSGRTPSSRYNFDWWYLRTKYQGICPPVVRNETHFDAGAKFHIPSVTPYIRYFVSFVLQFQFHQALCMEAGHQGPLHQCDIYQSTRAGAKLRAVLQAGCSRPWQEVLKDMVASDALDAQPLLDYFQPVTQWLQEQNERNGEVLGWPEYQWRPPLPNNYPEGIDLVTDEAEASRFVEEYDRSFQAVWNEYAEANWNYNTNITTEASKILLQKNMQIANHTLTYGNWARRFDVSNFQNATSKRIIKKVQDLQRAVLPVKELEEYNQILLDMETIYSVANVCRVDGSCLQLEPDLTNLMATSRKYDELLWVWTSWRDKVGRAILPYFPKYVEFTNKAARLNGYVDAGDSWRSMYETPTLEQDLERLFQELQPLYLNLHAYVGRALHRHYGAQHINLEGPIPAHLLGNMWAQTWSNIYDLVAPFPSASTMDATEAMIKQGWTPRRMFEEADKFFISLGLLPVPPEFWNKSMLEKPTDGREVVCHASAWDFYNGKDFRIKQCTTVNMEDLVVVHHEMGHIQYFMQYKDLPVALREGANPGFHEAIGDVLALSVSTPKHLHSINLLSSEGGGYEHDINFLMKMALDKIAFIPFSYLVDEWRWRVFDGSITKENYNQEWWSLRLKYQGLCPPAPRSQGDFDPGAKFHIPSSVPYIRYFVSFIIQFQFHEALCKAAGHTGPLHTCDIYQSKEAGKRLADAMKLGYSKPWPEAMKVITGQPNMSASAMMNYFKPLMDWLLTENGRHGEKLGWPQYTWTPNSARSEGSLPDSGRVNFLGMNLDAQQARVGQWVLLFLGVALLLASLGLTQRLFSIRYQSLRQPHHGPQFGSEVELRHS

rabbit converting enzyme [2] = target: T1, rabbit converting enzyme; test: In vitro inhibition of rabbit converting enzyme (Bünning and Shapiro methods); format: biochemical
Description: Doubtless, such drugs intervene in the CEI action mechanism, in that they act by preventing the transformation of angiotensin I to angiotensin II (vasoconstrictor) and the degradation of bradykinins (vasodilators). These CEIs thus cause vasodilation, which is exerted on arteries and on veins. Thus, they are mixed vasodilators. It should be remembered that the mechanism for the formation of the bond that can be formed between the inhibitor and the enzyme normally occurs in two phases, the first consisting of the formation of an inhibitor-enzyme complex by a competitive bond, which involves a reaction governed by a constant K1, and the second, consisting of a slow isomerisation of the inhibitor-enzyme complex, itself also governed by a reversible rate constant for this reaction, k4.
Comparison with captopril and enalaprilat” in Drug Research 1984; 34:1406–1410, and the doctoral thesis by Shapiro R. (Ph.D. Thesis, Harvard University Cambridge, Mass., 1983 “Activation and inactivation of rabbit pulmonary angiotensin converting enzyme”.

healthy subject = test: General arterial pressure at doses that improve field of vision; format: in vivo, human; conditions: in vivo
Description: Effective doses for producing effects in the ophtalmologic field are desirably lower than doses that would induce general arterial hypotension in a subject with normal pressure. Clearly, the doses that can be used can be higher in subjects with hypertension, although this is not necessary, since the desired effect is that obtained in the ophtalmologic field.

Row | stability of enzyme complex relative to enalaprilat (rabbit converting enzyme [2]; from k4) | Ki relative to enalaprilat (rabbit converting enzyme [2]; printed as 'higher than with enalaprilat') [times] | effect on arterial pressure of doses that improve field of vision (healthy subject) | SMILES | improvement in visual function in treated patients (treated patients) | constant k4 for the reversible isomerisation of the enzyme-inhibitor complex (rabbit converting enzyme [1]; 50 mM/l Hepes, 300 mmol/l NaCl, 1 micromol/l ZnCl2, pH 7.5) | Ki (rabbit converting enzyme [1]; in vitro, 50 mM/l Hepes, 300 mmol/l NaCl, 1 micromol/l ZnCl2, pH 7.5, read-out: equilibrium inhibition constant K) [nM] | Ki (rabbit converting enzyme [1]; unit inferred, read-out: constant Ki) [nM] | constant k4 (rabbit converting enzyme [1]; unit not given)
1 |  |  |  | C[C@H](N[C@@H](CCc1ccccc1)C(=O)O)C(=O)N1CCC[C@H]1C(=O)O [enalaprilat] | moderate improvement | 1.1×10^−4 S1 | 0.05 |  | 
2 | six times more stable | 7 | do not cause arterial hypertension | C[C@H](N[C@@H](CCc1ccccc1)C(=O)O)C(=O)N1[C@H](C(=O)O)C[C@@H]2CCC[C@@H]21 [ramiprilat] | incomparably better |  |  | 0.007 | 1.8×10^−5
